Measured values reported in ChEMBL document CHEMBL4616599, “Molecular mechanism of C-phycocyanin induced apoptosis in LNCaP cells” (Bioorg Med Chem, 2020).
Active and inactive are the calls of the source. The calls are words filed in the database; no cut-off is given here.

Columns and labels:
LNCaP [1] = experiment: Induction of DNA fragmentation in human LNCAP cells at 500 ug/ml measured after 24 hrs in presence of topotecan by agarose gel electrophoresis; format: functional, cell-based
LNCaP [2] = experiment: Up regulation of TNFRSF1OB gene expression in human LNCAP cells at 500 ug/ml measured after 24 hrs by RT profile PCR analysis relative to control; format: functional
LNCaP [3] = experiment: Cytotoxicity against human LNCAP cells assessed as reduction in cell viability at 500 ug/mL after 24 hrs by trypan blue dye exclusion assay; format: functional, cell-based
[4] = biological target: T1, Tumor necrosis factor receptor superfamily member 6 (Homo sapiens) (UniProt P25445); experiment: Activation of FAS receptor in human LNCAP cells assessed as increase in caspase 8 activity at 500 ug/ml measured after 24 hrs by Ac-IETD-pNA substrate based colorimetric assay; format: cell-based
T1 sequence (whole entry): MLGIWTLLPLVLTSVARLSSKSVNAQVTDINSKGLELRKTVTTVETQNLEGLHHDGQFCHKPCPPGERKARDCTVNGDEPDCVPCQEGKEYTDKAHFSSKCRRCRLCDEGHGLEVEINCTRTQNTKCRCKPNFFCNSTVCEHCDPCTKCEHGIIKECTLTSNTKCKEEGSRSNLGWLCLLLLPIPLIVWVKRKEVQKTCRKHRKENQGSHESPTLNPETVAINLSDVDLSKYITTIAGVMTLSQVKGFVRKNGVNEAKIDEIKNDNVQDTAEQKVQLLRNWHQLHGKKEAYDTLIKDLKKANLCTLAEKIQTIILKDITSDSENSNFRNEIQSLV

LNCaP [5] = experiment: Up regulation of BAG1 gene expression in human LNCAP cells at 500 ug/ml measured after 24 hrs by RT profile PCR analysis relative to control; format: functional
LNCaP [6] = experiment: Induction of apoptosis in human LNCAP cells assessed as up regulation of pro-apoptotic protein Apaf-1 expression at 500 ug/ml measured after 24 hrs in presence of topotecan by Western blot analysis; format: functional, cell-based
LNCaP [7] = experiment: Induction of apoptosis in human LNCAP cells assessed as increase in cleaved PARP expression at 500 ug/ml measured after 24 hrs by western blot analysis; format: functional, cell-based
LNCaP [8] = experiment: Induction of apoptosis in human LNCAP cells assessed as Bax/Bcl2 ratio at 500 ug/ml measured after 24 hrs by Western blot analysis; format: functional
LNCaP [9] = experiment: Induction of apoptosis in human LNCAP cells assessed as increase in caspase 3 activity at 500 ug/ml measured after 24 hrs by Ac-DEVD-pNA substrate based colorimetric assay; format: functional, cell-based
LNCaP [10] = experiment: Induction of apoptosis in human LNCAP cells assessed as increase in caspase 9 activity at 500 ug/ml measured after 24 hrs by Ac-LEHD-pNA substrate based colorimetric assay; format: functional, cell-based
LNCaP [11] = experiment: Up regulation of FAS gene expression in human LNCAP cells at 500 ug/ml measured after 24 hrs by RT profile PCR analysis relative to control; format: functional
[12] = Drug uptake in plasma membrane of human LNCAP cells at 250 to 500 ug/ml incubated for 12 hrs followed by 3 times washout by fluorescence microscopic analysis; format: ADME, cell membranes
LNCaP [13] = experiment: Up regulation of GADD45A gene expression in human LNCAP cells at 500 ug/ml measured after 24 hrs by RT profile PCR analysis relative to control; format: functional
LNCaP [14] = experiment: Induction of DNA fragmentation in human LNCAP cells at 500 ug/ml measured after 24 hrs by agarose gel electrophoresis; format: functional, cell-based
LNCaP [15] = experiment: Induction of apoptosis in human LNCAP cells assessed as up regulation of p21 expression at 500 ug/ml measured after 24 hrs by immunoblot analysis; format: functional, cell-based
LNCaP [16] = experiment: Induction of apoptosis in human LNCAP cells assessed as up regulation of cleaved caspase 3 expression at 500 ug/ml measured after 24 hrs by Western blot analysis; format: functional, cell-based
LNCaP [17] = experiment: Induction of apoptosis in human LNCAP cells assessed as up regulation of pro-apoptotic protein Bax expression at 500 ug/ml measured after 24 hrs in presence of topotecan by Western blot analysis; format: functional, cell-based
[18] = biological target: T1, Tumor necrosis factor receptor superfamily member 6 (Homo sapiens); experiment: Activation of FAS receptor in human LNCAP cells assessed as increase in caspase 8 activity at 500 ug/ml measured after 24 hrs in presence of topotecan by Ac-IETD-pNA substrate based colorimetric assay; format: cell-based
LNCaP [19] = experiment: Induction of apoptosis in human LNCAP cells assessed as up regulation of cleaved caspase 3 expression at 500 ug/ml measured after 24 hrs in presence of topotecan by Western blot analysis; format: functional, cell-based
LNCaP [20] = experiment: Induction of apoptosis in human LNCAP cells assessed as increase in FAS expression at 500 ug/ml measured after 24 hrs in presence of topotecan by Western blot analysis; format: functional, cell-based
LNCaP [21] = experiment: Induction of apoptosis against human LNCAP cells assessed as down regulation of survivin expression at 500 ug/ml measured after 24 hrs by Western blot analysis; format: functional, cell-based
LNCaP [22] = experiment: Induction of apoptosis in human LNCAP cells assessed as decrease in uncleaved PARP expression at 500 ug/ml measured after 24 hrs by Western blot analysis; format: functional, cell-based
LNCaP [23] = experiment: Induction of apoptosis in human LNCAP cells assessed as Bax/Bcl2 ratio at 500 ug/ml measured after 24 hrs in presence of topotecan by Western blot analysis; format: functional
LNCaP [24] = experiment: Down regulation of BIRC5 gene expression in human LNCAP cells at 500 ug/ml measured after 24 hrs by RT profile PCR analysis relative to control; format: functional
LNCaP [25] = experiment: Induction of apoptosis in human LNCAP cells assessed as down regulation of Mcl-1 expression at 500 ug/ml measured after 24 hrs by Western blot analysis; format: functional, cell-based
LNCaP [26] = experiment: Up regulation of TP73 gene expression in human LNCAP cells at 500 ug/ml measured after 24 hrs by RT profile PCR analysis relative to control; format: functional
LNCaP [27] = experiment: Induction of apoptosis in human LNCAP cells assessed as down regulation of survivin expression at 500 ug/ml measured after 24 hrs in presence of topotecan by Western blot analysis; format: functional, cell-based
LNCaP [28] = experiment: Induction of apoptosis in human LNCAP cells assessed as up regulation of pro-apoptotic protein Apaf-1 expression at 500 ug/ml measured after 24 hrs by Western blot analysis; format: functional, cell-based
[29] = Drug uptake in cytoplasm of human LNCAP cells at 250 to 500 ug/ml incubated for 12 hrs followed by 3 times washout by fluorescence microscopic analysis; format: ADME, subcellular
LNCaP [30] = experiment: Up regulation of TNFRSF10A gene expression in human LNCAP cells at 500 ug/ml measured after 24 hrs by RT profile PCR analysis relative to control; format: functional
LNCaP [31] = experiment: Up regulation of CASP8 gene expression in human LNCAP cells at 500 ug/ml measured after 24 hrs by RT profile PCR analysis relative to control; format: functional
LNCaP [32] = experiment: Induction of apoptosis in human LNCAP cells assessed as increase in cleaved PARP expression at 500 ug/ml measured after 24 hrs in presence of topotecan by Western blot analysis; format: functional, cell-based
LNCaP [33] = experiment: Down regulation of AKT1 gene expression in human LNCAP cells at 500 ug/ml measured after 24 hrs by RT profile PCR analysis relative to control; format: functional
LNCaP [34] = experiment: Induction of apoptosis in human LNCAP cells assessed as down regulation of Bcl2 expression at 500 ug/ml measured after 24 hrs by Western blot analysis; format: functional, cell-based
LNCaP [35] = experiment: Down regulation of BCL2 gene expression in human LNCAP cells at 500 ug/ml measured after 24 hrs by RT profile PCR analysis relative to control; format: functional
LNCaP [36] = experiment: Induction of apoptosis in human LNCAP cells assessed as increase in caspase 3 activity at 500 ug/ml measured after 24 hrs in presence of topotecan by Ac-DEVD-pNA substrate based colorimetric assay; format: functional, cell-based
LNCaP [37] = experiment: Up regulation of BAX gene expression in human LNCAP cells at 500 ug/ml measured after 24 hrs by RT profile PCR analysis relative to control; format: functional
LNCaP [38] = experiment: Cytotoxicity against human LNCAP cells assessed as reduction in cell viability at 500 ug/ml measured after 24 hrs in presence of topotecan by trypan blue dye exclusion test relative to control; format: functional
LNCaP [39] = experiment: Induction of apoptosis in human LNCAP cells assessed as increase in FAS expression at 500 ug/ml measured after 24 hrs by Western blot analysis; format: functional, cell-based
LNCaP [40] = experiment: Induction of apoptosis in human LNCAP cells assessed as increase in caspase 9 activity at 500 ug/ml measured after 24 hrs in presence of topotecan by Ac-LEHD-pNA substrate based colorimetric assay; format: functional, cell-based
LNCaP [41] = experiment: Induction of apoptosis in human LNCAP cells assessed as decrease in uncleaved PARP expression at 500 ug/ml measured after 24 hrs in presence of topotecan by Western blot analysis; format: functional, cell-based
LNCaP [42] = experiment: Down regulation of IGF1R gene expression in human LNCAP cells at 500 ug/ml measured after 24 hrs by RT profile PCR analysis relative to control; format: functional
LNCaP [43] = experiment: Induction of apoptosis in human LNCAP cells assessed as up regulation of p53 expression at 500 ug/ml measured after 24 hrs by immunoblot analysis; format: functional, cell-based
LNCaP [44] = experiment: Induction of apoptosis in human LNCAP cells assessed as up regulation of p53 expression at 500 ug/ml measured after 24 hrs in presence of topotecan by immunoblot analysis; format: functional, cell-based
LNCaP [45] = experiment: Up regulation of TNFRSF1B gene expression in human LNCAP cells at 500 ug/ml measured after 24 hrs by RT profile PCR analysis relative to control; format: functional
[46] = Drug uptake in cytoplasm of human LNCAP cells at 250 to 500 ug/mL incubated for 12 hrs followed by single compound washout by fluorescence microscopic analysis; format: ADME, subcellular
LNCaP [47] = experiment: Induction of apoptosis in human LNCAP cells assessed as down regulation of Mcl-1 expression at 500 ug/ml measured after 24 hrs in presence of topotecan by Western blot analysis; format: functional, cell-based
[48] = Drug uptake in plasma membrane of human LNCAP cells at 250 to 500 ug/mL incubated for 12 hrs followed by single washout by fluorescence microscopic analysis; format: ADME, cell membranes
LNCaP [49] = experiment: Induction of apoptosis in human LNCAP cells assessed as down regulation of Bcl2 expression at 500 ug/ml measured after 24 hrs in presence of topotecan by Western blot analysis; format: functional, cell-based
LNCaP [50] = experiment: Induction of apoptosis in human LNCAP cells assessed as up regulation of p21 expression at 500 ug/ml measured after 24 hrs in presence of topotecan by immunoblot analysis; format: functional, cell-based
LNCaP [51] = experiment: Induction of apoptosis in 3 hrs FAS inhibitor KP7-6 treated human LNCAP cells assessed as increase in caspase 8 activity at 500 ug/ml measured after 24 hrs by Ac-IETD-pNA substrate based colorimetric assay; format: functional, cell-based

Drug uptake [12]: Active
Drug uptake [29]: Not Active
Drug uptake [46]: Not Active
Drug uptake [48]: Active
Structure (SMILES): C/C=C1/C(=C\c2[nH]c(/C=C3N=C(/C=C4/NC(=O)C(CC)=C4C)C(C)=C/3CCC(=O)O)c(CCC(=O)O)c2C)NC(=O)C1C (stereo unspecified)
Activity (LNCaP [1]): Active
fold change (FC) (LNCaP [2]): 2.72
Activity (LNCaP [3]): Active
Activity [4]: Active
fold change (FC) (LNCaP [5]): 1.76
Activity (LNCaP [6]): Active
Activity (LNCaP [7]): Active
Ratio (LNCaP [8]): >1.5
Activity (LNCaP [9]): Active
Activity (LNCaP [10]): Active
fold change (FC) (LNCaP [11]): 5.34
fold change (FC) (LNCaP [13]): 6.01
Activity (LNCaP [14]): Active
Activity (LNCaP [15]): Active
Activity (LNCaP [16]): Active
Activity (LNCaP [17]): Active
Activity [18]: Active
Activity (LNCaP [19]): Active
Activity (LNCaP [20]): Active
Activity (LNCaP [21]): Active
Activity (LNCaP [22]): Active
Ratio (LNCaP [23]): >3.5
fold change (FC) (LNCaP [24]): 0.009
Activity (LNCaP [25]): Active
fold change (FC) (LNCaP [26]): 2.23
Activity (LNCaP [27]): Active
Activity (LNCaP [28]): Active
fold change (FC) (LNCaP [30]): 2.33
fold change (FC) (LNCaP [31]): 1.2
Activity (LNCaP [32]): Active
fold change (FC) (LNCaP [33]): 0.56
Activity (LNCaP [34]): Active
fold change (FC) (LNCaP [35]): 0.45
Activity (LNCaP [36]): Active
fold change (FC) (LNCaP [37]): 3.84
Activity (LNCaP [38]): >65%
Activity (LNCaP [39]): Active
Activity (LNCaP [40]): Active
Activity (LNCaP [41]): Active
fold change (FC) (LNCaP [42]): 0.47
Activity (LNCaP [43]): Active
Activity (LNCaP [44]): Active
fold change (FC) (LNCaP [45]): 1.67
Activity (LNCaP [47]): Active
Activity (LNCaP [49]): Active
Activity (LNCaP [50]): Active
Activity (LNCaP [51]): inactive
